Measured values: PubChem BioAssay AID1963866 (Molecular Pharmacology Branch, DTP, NCI, 2024)

Tested on: PDC KRAS tumor spheroids with HUVEC/MSC, viability
Experiment: Anticancer human tumor 349418-098-R-PDC patient-derived lung adenocarcinoma cell line growth inhibition [KRAS2]
Conditions: for IC50: curve of first compound; for viability, T/C: stronger effect = lower value
Text: Multicellular complex tumor spheroid response to RAS pathway inhibitors in combination with a targeted agents in patient-derived cell lines with oncogenic KRAS variants from multiple cancer types
A high-throughput screen of multi-cell type tumor spheroids was designed to identify active combinations of targeted small molecules and KRAS pathway inhibitors. Complex spheroids include a stromal component modeled by human endothelial cells (HUVEC) and fibroblasts modeled by human mesenchymal stem cells (MSCs). The concentration ranges selected for each drug and investigational agent were based upon clinically achievable concentrations if the clinical Cmax of the agent was known.
Compounds. The drugs and investigational agents: BI-3406 (NSC825286), BAY-293 (NSC824723), batoprotafib (TNO155; NSC825523), sotorasib (AMG 510; NSC818433), MRTX1257 (NSC819558), elimusertib (BAY 1895344; NSC800525), molibresib (GSK525762; NSC774829), temuterkib (LY3214996; NSC803410), venetoclax (NSC766270), alisertib (NSC759677), olaparib (NSC753686), talazoparib (NSC767125), erdafitinib (NSC781556), ipatasertib (NSC767898), cabozantinib (NSC761068), nintedanib (NSC756659), abemaciclib (NSC768073), docetaxel (NSC628503), trametinib (NSC758246), and sapanisertib (NSC764658) were obtained from the National Cancer Institute (NCI) Developmental Therapeutics Program Chemical Repository. The FDA-approved anticancer drug set is available from the Developmental Therapeutics Program. […] The stock solutions were prepared in dimethyl sulfoxide (DMSO, Sigma-Aldrich, St. Louis, MO, cat. D2650) at 800-fold the tested concentration and stored at -70 degrees C prior to their use. All drugs and investigational agents were tested over a range starting from a high concentration at or near the clinical Cmax and decreasing in half-log increments. If the clinical Cmax for an agent had not been determined, the highest concentration tested was 10 microM.
Cell Culture. All cells were maintained in an incubator at 37 degrees C and 5% CO2 with 95% humidity. The PDC lines were cultured according to standard operating procedures established by the NCI PDMR (https://pdmr.cancer.gov/sops/default.htm). Briefly, all PDCs were thawed and cultured in Matrigel-coated flasks prepared with a working solution of 1X Ham's F-12 nutrient mix, without supplementation (Invitrogen, Waltham, MA, cat. 11765054), 100 U/mL penicillin-streptomycin (Invitrogen, cat. 15140122), and 2.5% Matrigel (Corning Inc., Corning, NY, cat. 354248) for the first three passages. All PDCs were cultured in complete DMEM/F-12 media containing advanced DMEM/F-12 (Invitrogen, cat. 12634028), 4.9% defined fetal bovine serum, heat inactivated (HyClone Laboratories Inc., Logan, UT, cat. SH30070.03HI), 389 ng/mL hydrocortisone (Sigma-Aldrich, cat. H4001), 9.7 ng/mL human EGF recombinant protein (Invitrogen, cat. PHG0313), 23.4 microg/mL adenine (Sigma-Aldrich, cat. A2786), 97.3 U/mL penicillin-streptomycin (Invitrogen, cat. 15140122), 1.9 mM L-glutamine (Invitrogen, cat. 25030081), and 9.7 microM Y-27632 dihydrochloride (Tocris Bioscience, Bristol, United Kingdom, cat. 1254). The PDCs were cultured in complete DMEM/F12 media without 9.7 microM Y-27632 dihydrochloride for at least two passages prior to the screen. The established cell line HOP-62 was cultured in RPMI 1640 medium, HEPES (Invitrogen, cat. 22400105) with 10% defined fetal bovine serum (HyClone Laboratories Inc., cat. SH30070.03) and 2 mM L-glutamine (Invitrogen, cat. 25030081). The pooled donor HUVEC were cultured in endothelial cell growth medium 2 (PromoCell, Heidelberg, Germany, cat. C-22011) and the hMSC were cultured in mesenchymal stem cell growth medium 2 (PromoCell, cat. C-28009). For all experiments, HUVEC and hMSC were used at passages </=5, while the malignant cell lines were used at passages </=15. […]

[1] = second compound 0.1 µM, first compound 0.0316 µM
[2] = second compound 0.1 µM, first compound 0.1 µM
[3] = second compound 0.1 µM, first compound 0.316 µM
[4] = second compound 0.1 µM, first compound 1 µM
[5] = second compound 0.1 µM, first compound 3.16 µM
[6] = second compound 0.1 µM, first compound 10 µM
[7] = second compound 0.316 µM, first compound 0.0316 µM
[8] = second compound 0.316 µM, first compound 0.1 µM
[9] = second compound 0.316 µM, first compound 0.316 µM
[10] = second compound 0.316 µM, first compound 1 µM
[11] = second compound 0.316 µM, first compound 3.16 µM
[12] = second compound 0.316 µM, first compound 10 µM
[13] = second compound 1 µM, first compound 0.0316 µM
[14] = second compound 1 µM, first compound 0.1 µM
[15] = second compound 1 µM, first compound 0.316 µM
[16] = second compound 1 µM, first compound 1 µM
[17] = second compound 1 µM, first compound 3.16 µM
[18] = second compound 1 µM, first compound 10 µM
[19] = second compound 3.16 µM, first compound 0.0316 µM
[20] = second compound 3.16 µM, first compound 0.1 µM
[21] = second compound 3.16 µM, first compound 0.316 µM
[22] = second compound 3.16 µM, first compound 1 µM
[23] = second compound 3.16 µM, first compound 3.16 µM
[24] = second compound 3.16 µM, first compound 10 µM
[25] = second compound 10 µM, first compound 0.0316 µM
[26] = second compound 10 µM, first compound 0.1 µM
[27] = second compound 10 µM, first compound 0.316 µM
[28] = second compound 10 µM, first compound 1 µM
[29] = second compound 10 µM, first compound 3.16 µM
[30] = second compound 10 µM, first compound 10 µM
[31] = second compound 0.1 µM, first compound 0.00316 µM
[32] = second compound 0.1 µM, first compound 0.01 µM
[33] = second compound 0.316 µM, first compound 0.00316 µM
[34] = second compound 0.316 µM, first compound 0.01 µM
[35] = second compound 1 µM, first compound 0.00316 µM
[36] = second compound 1 µM, first compound 0.01 µM
[37] = second compound 3.16 µM, first compound 0.00316 µM
[38] = second compound 3.16 µM, first compound 0.01 µM
[39] = second compound 10 µM, first compound 0.00316 µM
[40] = second compound 10 µM, first compound 0.01 µM
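Also: spheroids exposed to compounds for seven days before readout.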

Row | SMILES | IC50 (second compound 0.1 µM) | IC50 (second compound 0.316 µM) | IC50 (second compound 1 µM) | IC50 (second compound 3.16 µM) | IC50 (second compound 10 µM) | viability, T/C [1] | viability, T/C [2] | viability, T/C [3] | viability, T/C [4] | viability, T/C [7] | viability, T/C [8] | viability, T/C [9] | viability, T/C [10] | viability, T/C [13] | viability, T/C [14] | viability, T/C [15] | viability, T/C [19] | viability, T/C [20] | viability, T/C [25] | viability, T/C [26] | also measured
1 | CC(C)NCC(C(=O)N1CCN(c2ncnc3c2C(C)CC3O)CC1)c1ccc(Cl)cc1 (stereo not given) + C=CC(=O)N1CCN(c2nc(=O)n(-c3c(C)ccnc3C(C)C)c3nc(-c4c(O)cccc4F)c(F)cc23)C(C)C1 | 287 nM | 275 nM | 184 nM | 107 nM | < 31.6 nM | 101% | 79.6% | 44.7% | 26.6% | 87.2% | 80.5% | 40.6% | 27% | 89.1% | 73.1% | 28.9% | 61.1% | 52.9% | 35.1% | 18.2% | viability, T/C [5]: 14.2%; viability, T/C [6]: 7.87%; viability, T/C [11]: 14.1%; viability, T/C [12]: 6.33%; viability, T/C [16]: 15.6%; viability, T/C [17]: 12.7%; viability, T/C [18]: 5.98%; viability, T/C [21]: 23.3%; viability, T/C [22]: 15.2%; viability, T/C [23]: 9.31%; viability, T/C [24]: 5.92%; viability, T/C [27]: 15.9%; viability, T/C [28]: 9.76%; viability, T/C [29]: 7.72%; viability, T/C [30]: 5.23%
2 | CC1(C)CCC(CN2CCN(c3ccc(C(=O)NS(=O)(=O)c4ccc(NCC5CCOCC5)c([N+](=O)[O-])c4)c(Oc4cnc5[nH]ccc5c4)c3)CC2)=C(c2ccc(Cl)cc2)C1 + C=CC(=O)N1CCN(c2nc(=O)n(-c3c(C)ccnc3C(C)C)c3nc(-c4c(O)cccc4F)c(F)cc23)C(C)C1 | 1740 nM | 1760 nM | 1160 nM | 538 nM | < 31.6 nM | 99.6% | 91.4% | 91.7% | 85.1% | 92.5% | 92.2% | 82.6% | 78.7% | 78.4% | 80.5% | 75.4% | 59.6% | 58.2% | 32.7% | 33.7% | viability, T/C [5]: 12.4%; viability, T/C [6]: 3.05%; viability, T/C [11]: 20.4%; viability, T/C [12]: 3.58%; viability, T/C [16]: 55.6%; viability, T/C [17]: 12.9%; viability, T/C [18]: 2.8%; viability, T/C [21]: 52.6%; viability, T/C [22]: 44.2%; viability, T/C [23]: 13.1%; viability, T/C [24]: 3.37%; viability, T/C [27]: 31.9%; viability, T/C [28]: 32.5%; viability, T/C [29]: 6.8%; viability, T/C [30]: 5.41%
3 | CCN1CCN(Cc2ccc(Nc3ncc(F)c(-c4cc(F)c5nc(C)n(C(C)C)c5c4)n3)nc2)CC1 + C=CC(=O)N1CCN(c2nc(=O)n(-c3c(C)ccnc3C(C)C)c3nc(-c4c(O)cccc4F)c(F)cc23)C(C)C1 | 6.77 nM | 7.65 nM | 7.4 nM | 4.46 nM | < 3.16 nM | 21.8% | 18% | 15.4% | 4.22% | 20.9% | 19.5% | 14.6% | 4.52% | 21.7% | 15% | 15.7% | 18.5% | 18.4% | 12.8% | 8.96% | viability, T/C [31]: 71.8%; viability, T/C [32]: 37.4%; viability, T/C [33]: 76.3%; viability, T/C [34]: 41.9%; viability, T/C [35]: 75.9%; viability, T/C [36]: 40.6%; viability, T/C [16]: 2.9%; viability, T/C [37]: 55.4%; viability, T/C [38]: 39.6%; viability, T/C [21]: 16.6%; viability, T/C [22]: 2.48%; viability, T/C [39]: 25.3%; viability, T/C [40]: 14.2%; viability, T/C [27]: 8.17%; viability, T/C [28]: 0.93%
4 | Cn1ncnc1[C@H]1c2n[nH]c(=O)c3cc(F)cc(c23)N[C@@H]1c1ccc(F)cc1 + C=CC(=O)N1CCN(c2nc(=O)n(-c3c(C)ccnc3C(C)C)c3nc(-c4c(O)cccc4F)c(F)cc23)C(C)C1 | > 100 nM | > 100 nM | > 100 nM | > 100 nM | < 0.316 nM | 88.1% | 87% | – | – | 83% | 75.7% | – | – | 64.6% | 64.6% | – | 61.1% | 56.3% | 34.3% | 30.5% | viability, T/C (second compound 0.1 µM, first compound 0.000316 µM): 101%; viability, T/C (second compound 0.1 µM, first compound 0.001 µM): 95.4%; viability, T/C [31]: 94.5%; viability, T/C [32]: 92.3%; viability, T/C (second compound 0.316 µM, first compound 0.000316 µM): 95.2%; viability, T/C (second compound 0.316 µM, first compound 0.001 µM): 88.4%; viability, T/C [33]: 86.8%; viability, T/C [34]: 87.6%; viability, T/C (second compound 1 µM, first compound 0.000316 µM): 81.1%; viability, T/C (second compound 1 µM, first compound 0.001 µM): 79.3%; viability, T/C [35]: 80.5%; viability, T/C [36]: 73.3%; viability, T/C (second compound 3.16 µM, first compound 0.000316 µM): 65.8%; viability, T/C (second compound 3.16 µM, first compound 0.001 µM): 66.6%; viability, T/C [37]: 58.1%; viability, T/C [38]: 60.9%; viability, T/C (second compound 10 µM, first compound 0.000316 µM): 39%; viability, T/C (second compound 10 µM, first compound 0.001 µM): 43.6%; viability, T/C [39]: 43.9%; viability, T/C [40]: 29.1%
